# Source: ChEMBL document CHEMBL5260810, “Inhibition of bromodomain-containing protein 9 for the prevention of epigenetically-defined drug resistance” (Bioorg Med Chem Lett, 2017)
# Columns and labels:
# OPM-2 = assay: Cytotoxicity against human OPM-2 cells measured after 8 days; assay type: functional, cell-based; conditions: OPM-2, 192 h
# [1] = target: Bromodomain and WD repeat-containing protein 1 (Homo sapiens, UniProt Q9NSI6); assay: Binding affinity to human partial length WDR9 bromodomain 2 (A1310 to E1430 residues) expressed in bacterial expression system by BROMOscan assay
# [2] = Cytotoxicity against human HCC1171 cells measured after 8 days; assay type: functional, cell-based; conditions: HCC1171, 192 h
# EB2 = assay: Cytotoxicity against human EB2 cells measured after 8 days; assay type: functional, cell-based; conditions: EB2, 192 h
# Protein polybromo-1 [3] = target: T1, Protein polybromo-1 (Homo sapiens, UniProt Q86U86); assay: Binding affinity to human partial length PBRM1 bromodomain 1 (S178 to E291 residues) expressed in bacterial expression system by BROMOscan assay
# KARPAS-422 = assay: Cytotoxicity against human KARPAS-422 cells measured after 8 days; assay type: functional, cell-based; conditions: KARPAS-422, 192 h
# [4] = target: 5-hydroxytryptamine receptor 2A (Homo sapiens) (UniProt P28223); assay: Displacement of [3H]ketanserin human recombinant 5-HT2A receptor at 10 uM after 60 mins by scintillation counting analysis relative to control
# AMO1 = assay: Cytotoxicity against human AMO1 cells measured after 8 days; assay type: functional, cell-based; conditions: AMO1, 192 h
# HCC95 = assay: Cytotoxicity against human HCC95 cells measured after 8 days; assay type: functional, cell-based; conditions: HCC95, 192 h
# [5] = Cytotoxicity against human WSU-FSCCL cells measured after 8 days; assay type: functional, cell-based; conditions: 192 h
# [6] = target: T2, Endothelin-1 receptor (Homo sapiens) (UniProt P25101); assay: Displacement of [125I]-endothelin-1 from human recombinant ETA receptor at 10 uM after 120 mins by scintillation counting analysis relative to control
# T2 sequence (whole entry): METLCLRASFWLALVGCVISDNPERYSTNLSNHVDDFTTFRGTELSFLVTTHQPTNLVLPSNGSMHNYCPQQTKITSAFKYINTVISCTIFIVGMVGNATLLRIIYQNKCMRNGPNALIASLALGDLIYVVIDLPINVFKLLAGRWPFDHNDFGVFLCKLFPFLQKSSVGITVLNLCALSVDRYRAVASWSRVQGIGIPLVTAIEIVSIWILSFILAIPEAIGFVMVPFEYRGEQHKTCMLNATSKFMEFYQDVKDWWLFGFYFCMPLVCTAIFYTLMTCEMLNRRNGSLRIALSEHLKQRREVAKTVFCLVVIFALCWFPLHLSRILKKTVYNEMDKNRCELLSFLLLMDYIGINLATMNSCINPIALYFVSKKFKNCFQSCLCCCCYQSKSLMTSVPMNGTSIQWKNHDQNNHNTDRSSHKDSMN
# RKO = assay: Cytotoxicity against human RKO cells measured after 8 days; assay type: functional, cell-based; conditions: 192 h
# BEN = assay: Cytotoxicity against human BEN cells measured after 8 days; assay type: functional, cell-based; conditions: 192 h
# NCI-H1944 = assay: Cytotoxicity against human NCI-H1944 cells measured after 8 days; assay type: functional, cell-based; conditions: NCI-H1944, 192 h
# [7] = target: SWI/SNF-related matrix-associated actin-dependent regulator of chromatin subfamily A member 4 (Homo sapiens, UniProt P51532); assay: Binding affinity to human partial length SMARCA4 (A1448 to S1575 residues) expressed in bacterial expression system by BROMOscan assay
# [8] = Cytotoxicity against human KPL-4 cells measured after 8 days; assay type: functional, cell-based; conditions: KPL4, 192 h
# LNCaP = assay: Cytotoxicity against human LNCaP/Ner cells measured after 8 days; assay type: functional, cell-based; conditions: 192 h
# [9] = target: Bromodomain-containing protein 3 (Homo sapiens, UniProt Q15059); assay: Binding affinity to BRD3 bromodomain 1/2 (unknown origin) by BROMOscan assay
# NCI-H727 = assay: Cytotoxicity against human NCI-H727 cells measured after 8 days; assay type: functional, cell-based; conditions: NCI-H727, 192 h
# DB = assay: Cytotoxicity against human DB cells measured after 8 days; assay type: functional, cell-based; conditions: 192 h
# COLO 205 = assay: Cytotoxicity against human COLO 205 cells measured after 8 days; assay type: functional, cell-based; conditions: COLO 205, 192 h
# [10] = Cytotoxicity against human HS-Sultan cells measured after 8 days; assay type: functional, cell-based; conditions: 192 h
# [11] = target: Bromodomain-containing protein 4 (Homo sapiens, UniProt O60885); assay: Binding affinity to full length BRD4 short isoform (unknown origin) by BROMOscan assay
# NCI-H1703 = assay: Cytotoxicity against human NCI-H1703 cells measured after 8 days; assay type: functional, cell-based; conditions: NCI-H1703, 192 h
# [12] = target: Bromodomain-containing protein 2 (Homo sapiens, UniProt P25440); assay: Binding affinity to human partial length BRD2 bromodomain 1 long isoform (K71 to N194 residues) expressed in bacterial expression system by BROMOscan assay
# Protein polybromo-1 [13] = target: T1, Protein polybromo-1; assay: Binding affinity to human partial length PBRM1 bromodomain 5 (S645 to D766 residues) expressed in bacterial expression system by BROMOscan assay
# SR = assay: Cytotoxicity against human SR cells measured after 8 days; assay type: functional, cell-based; conditions: 192 h
# [14] = Cytotoxicity against human HT115 cells measured after 8 days; assay type: functional, cell-based; conditions: HT115, 192 h
# [15] = target: T3, 5-hydroxytryptamine receptor 1A (Homo sapiens) (UniProt P08908); assay: Displacement of [3H]8-OH-DPAT from recombinant human 5-HT1A receptor at 10 uM after 60 mins by scintillation counting analysis relative to control
# T3 sequence (whole entry): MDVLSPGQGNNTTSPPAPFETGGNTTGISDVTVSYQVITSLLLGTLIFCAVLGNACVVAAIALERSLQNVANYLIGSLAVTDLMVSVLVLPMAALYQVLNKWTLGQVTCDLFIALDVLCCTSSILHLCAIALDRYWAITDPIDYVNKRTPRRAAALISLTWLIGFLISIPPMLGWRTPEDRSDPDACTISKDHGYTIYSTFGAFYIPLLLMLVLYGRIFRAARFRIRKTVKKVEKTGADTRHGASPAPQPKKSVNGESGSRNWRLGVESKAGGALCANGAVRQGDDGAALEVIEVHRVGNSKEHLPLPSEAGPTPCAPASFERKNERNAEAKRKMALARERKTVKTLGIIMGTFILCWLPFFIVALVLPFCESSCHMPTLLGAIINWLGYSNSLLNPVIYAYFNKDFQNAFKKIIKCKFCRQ
# HCC1954 = assay: Cytotoxicity against human HCC1954 cells measured after 8 days; assay type: functional, cell-based; conditions: HCC1954, 192 h
# NCI-H522 = assay: Cytotoxicity against human NCI-H522 cells measured after 8 days; assay type: functional, cell-based; conditions: NCI-H522, 192 h
# HOP-92 = assay: Cytotoxicity against human HOP-92 cells measured after 8 days; assay type: functional, cell-based; conditions: HOP-92, 192 h
# [16] = target: Bromodomain-containing protein 8 (Homo sapiens, UniProt Q9H0E9); assay: Binding affinity to BRD8 bromodomain 1 (unknown origin) by BROMOscan assay
# Bromodomain-containing protein 8, sequence (Q9H0E9 whole entry): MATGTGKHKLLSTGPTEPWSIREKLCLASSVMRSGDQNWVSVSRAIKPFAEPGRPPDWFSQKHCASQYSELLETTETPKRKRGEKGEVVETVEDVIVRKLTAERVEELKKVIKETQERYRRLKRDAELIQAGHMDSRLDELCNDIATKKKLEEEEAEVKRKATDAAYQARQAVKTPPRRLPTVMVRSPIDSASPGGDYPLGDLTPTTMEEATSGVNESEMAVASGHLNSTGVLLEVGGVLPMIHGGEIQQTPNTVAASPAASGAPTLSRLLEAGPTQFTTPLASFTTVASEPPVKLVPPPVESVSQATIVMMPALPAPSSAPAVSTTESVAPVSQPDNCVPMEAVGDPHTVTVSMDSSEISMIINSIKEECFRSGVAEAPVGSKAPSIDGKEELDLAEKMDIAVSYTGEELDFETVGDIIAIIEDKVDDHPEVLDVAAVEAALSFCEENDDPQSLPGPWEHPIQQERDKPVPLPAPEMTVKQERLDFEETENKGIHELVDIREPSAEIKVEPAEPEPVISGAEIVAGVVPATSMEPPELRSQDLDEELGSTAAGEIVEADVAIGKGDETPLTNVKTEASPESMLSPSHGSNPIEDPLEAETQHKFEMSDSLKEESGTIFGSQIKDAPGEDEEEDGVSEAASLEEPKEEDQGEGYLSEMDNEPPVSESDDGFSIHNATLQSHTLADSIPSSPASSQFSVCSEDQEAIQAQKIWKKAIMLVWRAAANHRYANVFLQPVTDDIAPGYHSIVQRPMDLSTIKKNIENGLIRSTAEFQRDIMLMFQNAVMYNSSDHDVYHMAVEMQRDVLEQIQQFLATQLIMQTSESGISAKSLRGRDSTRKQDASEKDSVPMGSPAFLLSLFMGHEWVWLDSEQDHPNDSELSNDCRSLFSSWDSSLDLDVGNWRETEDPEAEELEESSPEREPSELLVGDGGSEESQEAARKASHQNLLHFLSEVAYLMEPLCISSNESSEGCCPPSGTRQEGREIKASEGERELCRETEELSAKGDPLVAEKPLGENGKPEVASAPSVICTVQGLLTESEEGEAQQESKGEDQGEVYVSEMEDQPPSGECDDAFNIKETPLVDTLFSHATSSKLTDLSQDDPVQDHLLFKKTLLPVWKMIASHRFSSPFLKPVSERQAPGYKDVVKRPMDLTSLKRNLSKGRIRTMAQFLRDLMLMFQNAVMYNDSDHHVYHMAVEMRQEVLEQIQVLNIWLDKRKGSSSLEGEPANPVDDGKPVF
# Bromodomain and WD repeat-containing protein 1, sequence (Q9NSI6 whole entry, the tested form may be a part): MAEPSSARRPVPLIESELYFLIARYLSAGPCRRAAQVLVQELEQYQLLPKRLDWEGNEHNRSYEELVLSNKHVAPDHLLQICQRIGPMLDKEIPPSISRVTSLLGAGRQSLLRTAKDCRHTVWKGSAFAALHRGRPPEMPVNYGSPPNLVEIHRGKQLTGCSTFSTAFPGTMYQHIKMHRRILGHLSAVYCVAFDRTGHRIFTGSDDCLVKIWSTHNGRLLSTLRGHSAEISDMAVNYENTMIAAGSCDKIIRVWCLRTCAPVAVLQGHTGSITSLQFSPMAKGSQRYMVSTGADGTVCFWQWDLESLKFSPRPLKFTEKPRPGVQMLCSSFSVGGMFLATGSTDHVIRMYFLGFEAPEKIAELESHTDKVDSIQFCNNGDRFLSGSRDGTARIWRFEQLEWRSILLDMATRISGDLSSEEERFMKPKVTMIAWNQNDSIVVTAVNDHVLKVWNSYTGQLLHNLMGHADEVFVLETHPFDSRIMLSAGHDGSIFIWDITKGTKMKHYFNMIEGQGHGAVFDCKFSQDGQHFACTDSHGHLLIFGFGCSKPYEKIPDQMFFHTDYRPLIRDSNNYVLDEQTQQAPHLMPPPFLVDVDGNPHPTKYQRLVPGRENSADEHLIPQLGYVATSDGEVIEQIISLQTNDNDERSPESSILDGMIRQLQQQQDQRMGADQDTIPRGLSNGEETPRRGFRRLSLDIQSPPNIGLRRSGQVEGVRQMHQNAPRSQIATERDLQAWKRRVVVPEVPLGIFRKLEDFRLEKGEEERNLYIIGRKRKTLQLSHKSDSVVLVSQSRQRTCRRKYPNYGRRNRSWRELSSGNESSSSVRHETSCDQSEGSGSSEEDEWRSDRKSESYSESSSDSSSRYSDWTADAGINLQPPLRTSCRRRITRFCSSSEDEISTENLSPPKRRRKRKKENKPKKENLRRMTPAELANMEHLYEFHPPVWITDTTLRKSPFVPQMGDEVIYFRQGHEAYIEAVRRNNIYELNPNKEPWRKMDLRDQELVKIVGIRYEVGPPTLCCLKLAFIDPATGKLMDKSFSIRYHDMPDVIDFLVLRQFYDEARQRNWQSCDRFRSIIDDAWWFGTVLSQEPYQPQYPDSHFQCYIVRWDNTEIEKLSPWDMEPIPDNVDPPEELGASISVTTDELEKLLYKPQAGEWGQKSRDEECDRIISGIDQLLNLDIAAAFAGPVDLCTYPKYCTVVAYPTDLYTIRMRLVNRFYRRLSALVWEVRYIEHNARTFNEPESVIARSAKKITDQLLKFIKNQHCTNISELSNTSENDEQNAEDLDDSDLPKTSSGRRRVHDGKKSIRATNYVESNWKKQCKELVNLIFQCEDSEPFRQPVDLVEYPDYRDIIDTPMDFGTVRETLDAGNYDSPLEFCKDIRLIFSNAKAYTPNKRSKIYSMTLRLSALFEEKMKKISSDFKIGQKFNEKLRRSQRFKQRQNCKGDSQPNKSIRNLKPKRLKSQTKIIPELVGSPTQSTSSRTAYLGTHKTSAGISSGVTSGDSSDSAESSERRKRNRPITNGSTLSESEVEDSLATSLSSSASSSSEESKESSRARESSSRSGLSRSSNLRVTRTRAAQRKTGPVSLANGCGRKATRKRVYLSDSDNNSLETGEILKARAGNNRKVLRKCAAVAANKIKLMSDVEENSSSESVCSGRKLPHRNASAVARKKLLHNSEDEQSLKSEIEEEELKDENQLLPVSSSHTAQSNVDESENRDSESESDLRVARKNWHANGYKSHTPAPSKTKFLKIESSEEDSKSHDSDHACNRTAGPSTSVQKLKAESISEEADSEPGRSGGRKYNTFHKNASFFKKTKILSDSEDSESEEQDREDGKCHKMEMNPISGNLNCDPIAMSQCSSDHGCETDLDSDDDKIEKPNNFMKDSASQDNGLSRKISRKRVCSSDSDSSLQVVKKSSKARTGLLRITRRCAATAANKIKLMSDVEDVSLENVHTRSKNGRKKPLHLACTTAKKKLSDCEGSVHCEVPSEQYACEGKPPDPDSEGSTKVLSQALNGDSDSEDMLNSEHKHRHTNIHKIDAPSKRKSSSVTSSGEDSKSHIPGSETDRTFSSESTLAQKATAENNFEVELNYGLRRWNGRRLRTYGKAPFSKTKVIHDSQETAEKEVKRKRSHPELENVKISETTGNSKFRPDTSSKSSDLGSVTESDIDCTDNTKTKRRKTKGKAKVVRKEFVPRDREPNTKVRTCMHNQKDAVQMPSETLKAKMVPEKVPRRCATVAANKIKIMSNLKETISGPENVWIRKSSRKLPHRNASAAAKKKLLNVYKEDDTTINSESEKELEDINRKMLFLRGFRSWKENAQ
# Bromodomain-containing protein 2, sequence (P25440 whole entry, the tested form may be a part, canonical isoform): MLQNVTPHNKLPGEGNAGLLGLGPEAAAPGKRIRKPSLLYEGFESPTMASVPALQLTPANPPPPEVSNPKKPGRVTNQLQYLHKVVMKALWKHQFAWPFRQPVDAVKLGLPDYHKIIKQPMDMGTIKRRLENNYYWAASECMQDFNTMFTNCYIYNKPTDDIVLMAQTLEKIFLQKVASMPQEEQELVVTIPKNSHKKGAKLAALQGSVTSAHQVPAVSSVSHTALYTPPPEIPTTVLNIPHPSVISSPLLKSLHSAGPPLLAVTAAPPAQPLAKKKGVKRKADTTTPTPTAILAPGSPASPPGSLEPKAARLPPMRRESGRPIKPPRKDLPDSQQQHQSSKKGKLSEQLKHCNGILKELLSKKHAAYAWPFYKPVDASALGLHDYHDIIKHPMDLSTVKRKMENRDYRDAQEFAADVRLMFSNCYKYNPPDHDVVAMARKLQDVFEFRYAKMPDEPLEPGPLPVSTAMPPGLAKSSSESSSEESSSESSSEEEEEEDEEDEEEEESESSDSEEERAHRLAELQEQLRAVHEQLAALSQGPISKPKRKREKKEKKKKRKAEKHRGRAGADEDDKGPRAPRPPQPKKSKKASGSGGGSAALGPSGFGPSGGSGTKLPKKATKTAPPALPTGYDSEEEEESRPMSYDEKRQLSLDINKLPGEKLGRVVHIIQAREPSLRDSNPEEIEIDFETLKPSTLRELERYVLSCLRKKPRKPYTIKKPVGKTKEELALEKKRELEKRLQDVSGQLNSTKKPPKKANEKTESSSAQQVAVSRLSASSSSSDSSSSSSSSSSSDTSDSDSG
# 5-hydroxytryptamine receptor 2A (Homo sapiens), sequence (P28223 whole entry): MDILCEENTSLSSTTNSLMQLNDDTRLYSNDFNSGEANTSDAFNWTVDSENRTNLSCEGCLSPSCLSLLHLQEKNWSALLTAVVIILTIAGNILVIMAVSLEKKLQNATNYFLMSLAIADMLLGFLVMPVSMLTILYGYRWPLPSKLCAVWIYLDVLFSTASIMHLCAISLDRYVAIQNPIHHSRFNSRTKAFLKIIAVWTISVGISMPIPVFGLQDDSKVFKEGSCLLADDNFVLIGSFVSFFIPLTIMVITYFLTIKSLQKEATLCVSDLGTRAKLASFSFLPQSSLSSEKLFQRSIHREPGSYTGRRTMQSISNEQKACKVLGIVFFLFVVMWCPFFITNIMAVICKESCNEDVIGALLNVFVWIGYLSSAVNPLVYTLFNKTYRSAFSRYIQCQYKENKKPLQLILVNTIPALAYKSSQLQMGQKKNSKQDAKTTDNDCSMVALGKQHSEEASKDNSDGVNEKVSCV
Structure (SMILES),IC50 (OPM-2) [µM],Kd [1] [µM],IC50 [2] [µM],IC50 (EB2) [µM],Kd (Protein polybromo-1 [3]) [µM],IC50 (KARPAS-422) [µM],Activity [4] [%],IC50 (AMO1) [µM],IC50 (HCC95) [µM],IC50 [5] [µM],Activity [6] [%],IC50 (RKO) [µM],IC50 (BEN) [µM],IC50 (NCI-H1944) [µM],Kd [7] [µM],Kd [9] [µM],Kd [11] [µM],Kd [12] [µM],Kd (Protein polybromo-1 [13]) [µM],Kd [16] [µM],further results
C/C=C/Cn1cc(-c2ccc(C(C)(C)O)cc2OC)c2cc[nH]c2c1=O,13.7,> 10,20,20,7.6,20,0,20,20,13.5,12,20,20,20,> 10,5.5,0.58,2.7,> 10,> 10,IC50 [8]: 20 µM; IC50 (LNCaP): 17.8 µM; IC50 (NCI-H727): 20 µM; IC50 (DB): 16.9 µM; IC50 (COLO 205): 20 µM; IC50 [10]: 20 µM; IC50 (NCI-H1703): 20 µM; IC50 (SR): 20 µM; IC50 [14]: 20 µM; Activity [15]: 11%; IC50 (HCC1954): 20 µM; IC50 (NCI-H522): 20 µM; IC50 (HOP-92): 20 µM
C/C=C/Cn1cc(-c2ccc(C(=O)N3CCOCC3)cc2)c2cc[nH]c2c1=O,10,27,20,20,> 10,14.4,11,20,20,20,10,20,20,20,28,4.4,1.2,4,26,> 10,IC50 [8]: 20 µM; IC50 (LNCaP): 16.7 µM; IC50 (NCI-H727): 20 µM; IC50 (DB): 20 µM; IC50 (COLO 205): 20 µM; IC50 [10]: 20 µM; IC50 (NCI-H1703): 20 µM; IC50 (SR): 20 µM; IC50 [14]: 20 µM; Activity [15]: 7%; IC50 (HCC1954): 20 µM; IC50 (NCI-H522): 20 µM; IC50 (HOP-92): 20 µM
C/C=C/Cn1cc(-c2cc(OC)c(C(C)(C)O)cc2OC)c2cc(C)[nH]c2c1=O,–,> 10,–,–,> 10,–,–,–,–,–,–,–,–,–,> 10,> 10,> 10,> 10,> 10,> 10,–
C/C=C/Cn1cc(-c2cc(OC)c(C(=O)N3CCOCC3)cc2OC)c2cc(C)[nH]c2c1=O,2,> 5,2,2,> 10,2,15,2,2,0.81,16,2,2,2,> 10,> 10,> 10,> 10,> 10,> 10,IC50 [8]: 2 µM; IC50 (LNCaP): 2 µM; IC50 (NCI-H727): 2 µM; IC50 (DB): 2 µM; IC50 (COLO 205): 2 µM; IC50 [10]: 2 µM; IC50 (NCI-H1703): 2 µM; IC50 (SR): 2 µM; IC50 [14]: 2 µM; Activity [15]: 6%; IC50 (HCC1954): 2 µM; IC50 (NCI-H522): 2 µM; IC50 (HOP-92): 2 µM
